According to ChEMBL document CHEMBL1148680 (Bioorg Med Chem Lett, 2006):

What was measured:
[1] = Distribution coefficient, log D of the compound; format: physicochemical; details: octanol/water
[2] = system: Human immunodeficiency virus; assay: Antiviral activity against HIV BaL in PM1 cell; format: functional; details: Human immunodeficiency virus 1, BaL
hERG (KCNH2) [3] = molecular target: T1, hERG (KCNH2) (Homo sapiens, UniProt Q12809); assay: Inhibition of [3H]dofetilide binding to HERG expressed in HEK293 cells at 300 nM; format: cell-based; details: HEK293 cells that express hERG, probe [3H]dofetilide
T1 sequence (Q12809 whole entry): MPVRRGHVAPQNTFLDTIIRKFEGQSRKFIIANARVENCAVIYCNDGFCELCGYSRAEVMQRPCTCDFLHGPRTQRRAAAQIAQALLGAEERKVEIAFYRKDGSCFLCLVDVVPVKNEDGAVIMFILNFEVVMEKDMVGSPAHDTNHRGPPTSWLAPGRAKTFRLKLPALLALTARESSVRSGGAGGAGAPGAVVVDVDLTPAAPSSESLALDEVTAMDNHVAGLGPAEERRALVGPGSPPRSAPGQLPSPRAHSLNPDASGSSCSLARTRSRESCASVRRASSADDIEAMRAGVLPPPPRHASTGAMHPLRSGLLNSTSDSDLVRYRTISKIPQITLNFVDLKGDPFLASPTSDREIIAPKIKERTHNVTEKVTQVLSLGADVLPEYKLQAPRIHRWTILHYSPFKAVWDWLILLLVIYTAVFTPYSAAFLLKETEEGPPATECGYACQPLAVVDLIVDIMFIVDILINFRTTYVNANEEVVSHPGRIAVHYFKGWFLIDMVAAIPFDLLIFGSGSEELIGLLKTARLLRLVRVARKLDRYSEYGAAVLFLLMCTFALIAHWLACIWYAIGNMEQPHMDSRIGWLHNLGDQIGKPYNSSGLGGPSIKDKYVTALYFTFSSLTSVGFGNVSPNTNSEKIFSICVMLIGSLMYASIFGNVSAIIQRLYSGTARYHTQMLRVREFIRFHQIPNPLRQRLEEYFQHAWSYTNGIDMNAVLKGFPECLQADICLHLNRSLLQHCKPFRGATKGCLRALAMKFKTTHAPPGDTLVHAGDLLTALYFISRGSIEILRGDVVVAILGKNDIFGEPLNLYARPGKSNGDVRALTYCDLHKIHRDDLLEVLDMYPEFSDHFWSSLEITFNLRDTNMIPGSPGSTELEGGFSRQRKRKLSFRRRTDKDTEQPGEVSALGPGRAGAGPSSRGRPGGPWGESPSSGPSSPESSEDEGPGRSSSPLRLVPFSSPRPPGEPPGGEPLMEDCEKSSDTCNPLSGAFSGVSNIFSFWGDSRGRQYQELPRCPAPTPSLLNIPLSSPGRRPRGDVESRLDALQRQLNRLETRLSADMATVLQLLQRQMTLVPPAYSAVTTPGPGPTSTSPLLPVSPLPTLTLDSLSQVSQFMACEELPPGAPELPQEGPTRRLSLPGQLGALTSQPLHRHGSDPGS

hERG (KCNH2) [4] = molecular target: T1, hERG (KCNH2); assay: Inhibition of [3H]dofetilide binding to HERG expressed in HEK293 cells at 100 nM; format: cell-based; details: HEK293 cells that express hERG, probe [3H]dofetilide
[5] = molecular target: C-C chemokine receptor type 5 (Homo sapiens, UniProt P51681); assay: Inhibition of [125I]MIP-1beta binding to CCR5 expressed in HEK293 cells; format: cell-based
C-C chemokine receptor type 5, sequence (P51681 whole entry): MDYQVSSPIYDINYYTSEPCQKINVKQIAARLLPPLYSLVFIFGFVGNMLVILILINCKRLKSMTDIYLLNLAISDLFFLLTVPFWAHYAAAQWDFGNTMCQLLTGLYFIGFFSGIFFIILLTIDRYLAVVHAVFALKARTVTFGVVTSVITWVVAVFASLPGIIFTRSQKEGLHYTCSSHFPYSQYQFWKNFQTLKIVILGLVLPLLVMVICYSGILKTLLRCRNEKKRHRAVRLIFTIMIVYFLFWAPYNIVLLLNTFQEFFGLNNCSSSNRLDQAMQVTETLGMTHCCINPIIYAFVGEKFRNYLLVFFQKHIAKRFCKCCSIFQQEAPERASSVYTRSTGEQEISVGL

[6] = Dissociation constant, pKa of the compound; format: physicochemical
[7] = molecular target: Voltage-gated inwardly rectifying potassium channel KCNH2 (Homo sapiens, UniProt Q12809); assay: Inhibition of [3H]dofetilide binding to HERG expressed in HEK293 cells; format: cell-based
Voltage-gated inwardly rectifying potassium channel KCNH2, sequence (Q12809 whole entry): as the sequence (Q12809 whole entry) above

SMILES | IC50 [5] [nM] | IC90 [2] [nM] | inhibition at 0.3 µM (hERG (KCNH2) [3]) [%] | also measured
Cc1nnc(C(C)C)n1C1CC2CCC(C1)N2CC[C@H](NC(=O)C1CCC1)c1ccccc1 (stereo partly drawn) | – | 8 | 30 | logD [1]: 1.6; inhibition at 0.1 µM (hERG (KCNH2) [4]): 14%
O=C(N[C@@H](CCN1CCC(n2cnc(Cc3ccccc3)n2)CC1)c1ccccc1)C1CCC1 | 5 | – | – | –
O=C(N[C@@H](CCN1CCC(c2noc(Cc3ccccc3)n2)CC1)c1ccccc1)C1CCC1 | 20 | – | – | inhibition at 0.1 µM (hERG (KCNH2) [4]): 50%
Cc1nnc(C)n1C1CC2CCC(C1)N2CC[C@H](NC(=O)C1CCC1)c1ccccc1 (stereo partly drawn) | – | 13 | – | inhibition at 0.1 µM (hERG (KCNH2) [4]): 10%
Cc1nc2ccccc2n1C1CC2CCC(C1)N2CC[C@H](NC(=O)C1CCC1)c1ccccc1 (stereo partly drawn) | – | – | 80 | pKa [6]: 7.8
Cc1nnc(C(C)C)n1C1CC2CCC(C1)N2CC[C@H](NC(=O)C1CCCC1)c1ccccc1 (stereo partly drawn) | – | 2 | 18 | logD [1]: 2.1
O=C(Cc1ccc(F)cc1)NC1CCN(CC[C@H](NC(=O)C2CCC2)c2ccccc2)CC1 | 0.7 | – | – | –
Cc1nnc(C(C)C)n1C1CC2CCC(C1)N2CC[C@H](NC(=O)CCC(F)(F)F)c1ccccc1 (stereo partly drawn) | – | 14 | 14 | logD [1]: 1.8
CC(=O)N(CCOc1ccc(NS(C)(=O)=O)cc1)CCc1ccc(NS(C)(=O)=O)cc1 | – | – | – | Activity [7]: 0.021 µM
Cc1nnc(C(C)C)n1[C@@H]1C[C@H]2CC[C@@H](C1)N2CC[C@H](NC(=O)C1CCC(F)(F)CC1)c1ccccc1 [MARAVIROC] | – | – | – | logD [1]: 2.1
Cc1nnc(C(C)C)n1[C@H]1C[C@H]2CC[C@@H](C1)N2CC[C@H](NC(=O)C1CCC(F)(F)CC1)c1ccccc1 [MARAVIROC] | – | 2 | – | –
Cc1nc2ccccc2n1C1CC2COCC(C1)N2CC[C@H](NC(=O)C1CCC1)c1ccccc1 (stereo partly drawn) [OXOGRANATANE] | 39 | – | 70 | pKa [6]: 6

More lines, main results first:

IC50 [5] [nM] | SMILES | IC90 [2] [nM] | inhibition at 0.3 µM (hERG (KCNH2) [3]) [%] | also measured
250 | Cc1nnc(Cc2ccccc2)n1C1CCN(CC[C@H](NC(=O)C2CCC2)c2ccccc2)CC1 | – | – | –
50 | Cc1nnc(C)n1C1CCN(CC[C@H](NC(=O)C2CCC2)c2ccccc2)CC1 | – | – | inhibition at 0.1 µM (hERG (KCNH2) [4]): 5%
70 | Cc1nc(C2CCN(CC[C@H](NC(=O)C3CCC3)c3ccccc3)CC2)no1 | – | – | –
